We go through 3 compounds from paper PMC11206207 (Chemical Science, 2024).

In general, EC50 refers to the concentration at which the effect is half-maximal. The Kd is a measure of binding affinity in units of concentration. A higher Kd goes with lower affinity.

One test has as its system AGS cells. Kind of test: Cell viability assay. The format is cell-based. The following applies: 24 hours.
The target in the next test is TEAD4 (Homo sapiens, UniProt Q15561). In words: Fluorescence polarization binding assay of FAM/FITC-labelled peptides to TEAD4.
TEAD4, sequence (Q15561 210-434): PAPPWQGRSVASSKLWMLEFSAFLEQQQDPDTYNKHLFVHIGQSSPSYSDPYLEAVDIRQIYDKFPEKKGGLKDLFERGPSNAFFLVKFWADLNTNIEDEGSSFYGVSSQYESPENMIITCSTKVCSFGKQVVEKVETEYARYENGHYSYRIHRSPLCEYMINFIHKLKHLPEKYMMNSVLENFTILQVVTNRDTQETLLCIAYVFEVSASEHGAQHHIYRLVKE

Numbered stars: 1 amine (or outer) side, 2 acyl side, 3 side chain; on linkers, the order of the positions; unused ones are H or OH. Bridge positions count the residues as written; N and C are the ends. Ends that are not written are not given here. Peptide text beside a SMILES is read from it. * marks the point of attachment. FITC = O=C1OC2(c3ccc(O)cc3Oc3cc(O)ccc32)c2ccc(NC(=S)*)cc21; X1 = O=C(C[*:2])Nc1cc(NC(=O)C[*:3])cc(C(=O)[*:1])c1; AEEA = NCCOCCOCC(=O)O

`CC(=O)N[C@@H](CC(C)C)C(=O)N1CCC[C@H]1C(=O)N[C@H]1CCCCNC(=O)c2cc3cc(c2)NC(=O)CSC[C@H](NC(=O)[C@H](CO)NC(=O)[C@H](C(C)C)NC(=O)[C@H](Cc2c[nH]c4ccccc24)NC(=O)[C@H](CO)NC(=O)[C@H]([C@@H](C)O)NC(=O)[C@H](CC(C)C)NC(=O)CNC(=O)[C@H]([C@@H](C)O)NC1=O)C(=O)N[C@@H](Cc1c[nH]cn1)C(=O)N[C@@H](Cc1ccccc1)C(=O)N[C@@H](CC(C)C)C(=O)N[C@@H](CCCNC(=N)N)C(=O)N[C@@H](CO)C(=O)N[C@@H](CC(C)C)C(=O)N[C@H](C(=O)NCC(=O)NCC(=O)N[C@@H](CO)C(=O)NCC(N)=O)CSCC(=O)N3` [compound 16] (Ac-LPKTGLTSWVSCHFLRSLCGGSG-NH2; linker 3-12-19 via X1): in the test on AGS cells (at 10 μM, in presence of PDPA nanocarrier), the “inhibitory activity on AGS cells” value is on record as “little inhibitory inhibition”.

Take “PKKKRKVDPKKKRKVDPKKKRKVNGLPKTGLTSWVSCHFLRSLCGGSG-NH2 (linker 28-37-44 via X1; C-terminus assumed) [16-NLS]”: the EC50 in the test on AGS cells (read-out: cellular inhibitory activity EC50, AGS cells) was 8.3 µM.

Consider `CC(C)C[C@H](NC(=O)[C@H](CO)NC(=O)[C@H](Cc1ccccc1)NC(=O)[C@H](CC(=O)O)NC(=O)[C@H](Cc1c[nH]c2ccccc12)NC(=O)[C@H](Cc1ccccc1)NC(=O)[C@H](CO)NC(=O)[C@H](CCCCN)NC(=O)[C@@H]1CCCN1C(=O)[C@H](Cc1c[nH]c2ccccc12)NC(=O)[C@H](CCC(N)=O)NC(=O)CNC(=O)[C@@H](NC(=O)[C@H](CCCCN)NC(=O)[C@@H]1CCCN1C(=O)[C@H](CC(C)C)NC(=O)COCCOCCNC(=S)Nc1ccc2c(c1)C(=O)OC21c2ccc(O)cc2Oc2cc(O)ccc21)[C@@H](C)O)C(=O)NCC(=O)N[C@@H](CS)C(=O)NCC(=O)NCC(=O)N[C@@H](CO)C(=O)NCC(N)=O` [linear version of 15] ({FITC-AEEA}-LPKTGQWPKSFWDFSLGCGGSG-NH2; N-terminus and C-terminus assumed), for which, on TEAD4, the dissociation constant (Kd) came to 6.3 µM.
